# Data: patent publication US20140199714A1, “METHOD FOR DETECTING CANCER CELLS METASTASIZING INTO SENTINEL LYMPH NODE” (SHINSHU UNIVERSITY, priority 2008, published 2014)
# How the values were obtained:
# Format in all cases: cell-based
# E-selectin on human LECs = assay: Immunohistochemical expression of E-selectin on cultured human LECs
# Method: Using an indirect immunohistochemical technique, the inventors examined the effects of the supernatants of culture medium of two kinds of carcinoma cells, MDA-MB-231 and MCF-7, on the expression of adhesion molecules such as E-selectin, P-selectin, vascular cell adhesion molecule (VCAM)-1, and intercellular adhesion molecule (ICAM)-1 on the human LECs. The carcinoma cells were plated in DMEM/F12 with 10% FBS, which was replaced the following day with DMEM/F12 with 3% FBS, and then collected after overnight culture. The collected solution was centrifuged at 2,000 rpm for 5 min. at 4° C. To examine the effects of the supernatants on the expression of the adhesion molecules on the human LECs, 1 mL of each collected solution was added to starvation culture medium, EBM-2 with 3% FBS of the human LECs, and then stimulated for 48 hrs. on the cells. In some experiments, the supernatant solutions at different concentrations (1/100 or 1/10,000 dilution) were constructed with appropriate volumes of DMEM/F12 with 3% FBS.
# Indirect immunohistochemical studies were performed on the cultured LECs seeded or glass slides coated with type I collagen, and then the cells were fixed with 3.3% formalin in phosphate-buffered saline solution (PBS), for 20 min. at room temperature. The cells were washed three times with PBS, and then incubated overnight at 4° C. with primary polyclonal human antisera to E-selectin/CD62E (dilution 10 μg/mL, available from R&D Systems, US), P-selectin/CD62P (dilution 10 μg/mL, available from R&D Systems, US), VCAM-1/CD106 (dilution 10 μg/mL, available from R&D Systems, US), and ICAM-1/CD54 (dilution 10 μg/mL, available from R&D Systems, US).
# Before primary staining, the cultured cells were permeabilized with 0.1% TRITON-X. After washing three times in PBS, the cells were incubated for 1 hr. at room temperature with 1:100 diluted ALEXA FLUOR 488 donkey anti-mouse IgG (available from Invitrogen, US). The nuclei of cultured cells were counter-stained and mounted with PROLONG GOLD antifade reagent with 4′-6-diamidine-2-phenylindole (DAPI) (available from Molecular Probes, US), examined by a fluorescent microscope (Leica, Switzerland), and photographed.
# Immunohistochemistry was performed on the cultured human LECs or the fresh-frozen SLNs isolated from the breast cancer patients. In brief, the cultured LECs were fixed with 10% formalin in the phosphate-buffered saline solution (PBS) at room temperature. The cells were incubated for 4 hrs. at room temperature with primary polyclonal human antisera platelet-endothelial cell adhesion molecule (PECAM)-1 (dilution 1:100, available from BD Biosciences, US), lymphatic vessel endothelial hyaluronan receptor (LYVE)-1 (dilution 1:50, available from RELIATech, Germany), PROX-1 (dilution 1:50, available from AngioBio, US), podoplanin (dilution 1:50, available from AngioBio, US), vascular endothelium growth factor receptor 3 (VEGF R3) (dilution 1:50, available from Santa Cruz, US), E-selectin/CD62E (dilution 1:50, available from R&D systems, US), P-selectin/CD62P (dilution 1:50, available from R&D systems, US), vascular cell adhesion molecule (VCAM)-1/CD106 (dilution 1:50, available from R&D systems, US), and intercellular adhesion molecule (ICAM)-1/CD54 (dilution 1:50, available from R&D systems, US). Before the staining, permeabilization of the cultured cells with 0.1% TRITON-X was performed. Then, the cells were stained using the following antibodies: ALEXA FLUOR 488 chicken anti-rabbit IgG or ALEXA FLUOR 488 donkey anti-mouse IgG (available from Invitrogen, US). The nuclei of the cultured cells were counter-stained and mounted with ProLong Gold antifade reagent with 4′-6-diamidine-2-phenylindole (DAPI) (available from Molecular Probes, US). The cultured cells were examined by a fluorescent microscope (available from Leica, Germany) and photographed. […]
# [1] = tested on: attachment of MCF-7 carcinoma cells to human LECs; assay: In vitro human LECs attachment assay (CCL2), MCF-7; details: 18 hrs.-stimulation of 10 ng/mL CCL2 vs negative control with DMEM/F12; p<0.01
# Method: (§1) The human LECs were plated to form a monolayer on type I collagen-coated 35 mm plates and incubated to confluence in 5% O2, 5% CO2, and 90% N2 at 37° C. The LECs were kept in serum-starved medium containing EBM-2 with 3% FBS. Selected plates were treated with 10 ng/mL CCL2 for 18 hrs. In some experiments, the plates were stimulated by the serum-starved medium pretreated with neutralization of 10 ng/mL CCL2 with 1.0 μg/mL CCL2 specific antibody.
# (§2) In some experiments, the plates were also treated with anti-human ICAM-1 antibody (available from R&D systems, US) for 30 min. after the 18 hrs. treatment with 10 ng/mL CCL2.
# (§3) The two kinds of the breast carcinoma cells such as MDA-MB-231 and MCF-7 stained with PKH26 fluorescent dye (available from SIGMA, US) were then plated at 1×10^5 cells per plate and incubated for 30 min. at 37° C. Unbound cells were removed by aspiration, and the plates were washed with EBM-2 three times. The attachment of the carcinoma cells was quantified by counting the number of cells under ×100 magnification using a Leica microscope.
# ICAM-1 on human LECs = assay: Immunohistochemical expression of ICAM-1 on cultured human LECs
# [2] = tested on: attachment of MDA-MB-231 carcinoma cells to human LECs; assay: In vitro human LECs attachment assay (CCL2), MDA-MB-231; details: 18 hrs.-stimulation of 10 ng/mL CCL2 vs negative control with DMEM/F12; p<0.01
# Method: as §1, §2, §3
# [3] = 4 hrs-stimulation of 10 ng/mL CCL2
# [4] = 18 hrs.-stimulation with 10 ng/mL chemokine
substance,measurement,setting,value
CCL2: chemokine CCL2,immunoreaction of anti-E-selectin,"E-selectin on human LECs; 10 ng/mL CCL2, stimulation time increased to 18 hrs. and 48 hrs.",markedly decreased
same,staining with E-selectin antiserum on LECs,E-selectin on human LECs; [3],Slight staining
same,expression of E-selectin on human LECs,E-selectin on human LECs; [4],Little or no expression
same,in vitro attachment of MCF-7 to human LECs,[1],significant increase
same,intensity of the immunoreactivity for ICAM-1,"ICAM-1 on human LECs; 10 ng/mL CCL2, stimulation time of 18 hrs. only",significantly increased
same,contrast-density of ICAM-1 staining (mean density/pixel),"ICAM-1 on human LECs; 10 ng/mL CCL2 vs negative control, p<0.01, n=5",increases significantly
same,expression of ICAM-1 on human LECs,ICAM-1 on human LECs; [3],marked expression
same,expression of ICAM-1 on human LECs,ICAM-1 on human LECs; [4],marked expression
same,expression of ICAM-1 on human LECs,"ICAM-1 on human LECs; 18 hrs.-stimulation, 10 pg/mL CCL2","slight, but significant, expression"
same,expression of ICAM-1 on human LECs,"ICAM-1 on human LECs; 18 hrs.-stimulation, 1 ng/mL or 10 ng/mL of CCL2",marked expression
same,in vitro attachment of MDA-MB-231 to human LECs,[2],significant increase
